The source of these data is patent US8298328B2, “Amorphous metal salt for facilitating the handling property of portland cements and dental applications thereof” (Taipei Medical University, priority 2008, dated 2012).

The nature of series [1]: Crystal form by wide-angle X-ray diffraction (XRD). It counts as physicochemical. To be noted: XRD of powder. The method, then:
The crystal form of the CLG powder prepared above is determined by wide-angle x-ray diffraction (XRD). First, 1.00 g of CLG powder was placed in a sample carrier, and the powder filling was pressed by a slide. Then, the sample was placed on an X-ray diffractometer (MaxRC, Rigaku, Japan), and X-ray diffraction was performed by using Kα radiation (λ=1.541838A) at scan rate of 10°/min and 20 scanning angle from 5° to 60°. The peaks of X-ray diffraction data were analyzed in accordance with the Joint Committee on Powder Diffraction Standards (JCPDS).

For series [2] the following is noted: filtrate after reaction with CaO, before drying.
Experimental: After mixing and stirring for 1 hour, the solution was filtered, and the filtrate was collected.
The nature of series [3]: Water solubility of the divalent metal salt powder. To be noted: 25° C., dried powder.

As to `O.O.O=S(=O)([O-])[O-].[Ca+2]` [Comparative Example 1, Calcium Sulfate Dehydrate, reference compound], the Crystal form entry in series [1] is listed as “Crystalline”.

With `CC(O)C(=O)[O-].CC(O)C(=O)[O-].[Ca+2]` (stereo not drawn) [Comparative Example 3, Calcium Lactate, reference compound], the Crystal form result was “Crystalline” in series [1] and “crystalline” in series [1] (listed as CL).

Regarding `CC(O)C(=O)[O-].O=C([O-])[C@H](O)[C@@H](O)[C@H](O)[C@H](O)CO.[Ca+2]` [Example 1, Calcium Lactate Gluconate], the Crystal form entry in series [1] was “Amorphous”; in series [1] (listed as CLG) it was “amorphous”. Moreover, in series [2], the “pH value of the filtrate solution” value stood at 9.8. The entries for the “Solubility (water solubility)” value in series [3] and in series [3] (listed as CLG) were 35.7~41.0 g/100 ml and 35.7˜41.0 g/100 ml, respectively.

On to `O=C([O-])[C@H](O)[C@@H](O)[C@H](O)[C@H](O)CO.O=S(=O)([O-])O.[Ca+2]` [Example 3, Calcium Sulfate Gluconate], for which the Crystal form result in series [1] is “Amorphous”; in series [1] (listed as CSG) it was “amorphous”. Moreover, the “pH value of the filtrate solution” value in series [2] is given as 9.3. The “Solubility (water solubility)” value was 30.1~31.7 g/100 ml in series [3] and 30.1˜31.7 g/100 ml in series [3] (listed as CSG).

For “Calcium Gluconate [Comparative Example 2, reference compound]”, the Crystal form entry in series [1] was “Crystalline”; in series [1] (listed as CG) it was “crystalline”.

Take Calcium Lactate Sulfate [Example 2]: the Crystal form entry in series [1] was “Amorphous”; in series [1] (listed as CLS) it was “amorphous”. Besides, in series [2], the “pH value of the filtrate solution” value was determined as 9.7.
